In US6825348B2, “Antiviral compounds” (Academia Sinica, priority 2002, dated 2004):

Assays:
[1] = test system: herpes simplex type 1 virus (HSV-1) (KOS); assay: Inhibition of HSV-1 cytopathogenicity in Vero cell culture; type: cell-based; conditions: Vero cell culture; 50% inhibition of virus-induced cytopathogenicity; mean of duplicates; for 1:1 (W/W) mixtures IC50 refers to known antiviral drugs
[2] = test system: herpes simplex type 2 virus (HSV-2) (G); assay: Inhibition of HSV-2 cytopathogenicity in Vero cell culture; type: cell-based; conditions: 50% inhibition of cytopathogenicity, for 1:1 mixtures IC50 refers to known antiviral drugs
[3] = test system: thymidine kinase-positive (TK+) varicella-zoster virus (YS); assay: Inhibition of TK+ VZV cytopathogenicity in Vero cell culture; type: cell-based; conditions: Vero cell culture; 50% inhibition of cytopathogenicity; for 1:1 mixtures IC50 refers to known antiviral drugs
[4] = test system: thymidine kinase-deficient (TK−) varicella-zoster virus (YS/R); assay: microbe, parasite or virus in culture; type: cell-based; conditions: Vero cell culture; 50% inhibition of cytopathogenicity; for 1:1 mixtures IC50 refers to known antiviral drugs
[5] = test system: human cytomegalovirus (AD-169); assay: Inhibition of HCMV cytopathogenicity in Vero cell culture; type: cell-based; conditions: Vero cell culture; 50% inhibition of cytopathogenicity; for 1:1 mixtures IC50 refers to known antiviral drugs
HIV-1 (IIIB) = assay: microbe, parasite or virus in culture; type: cell-based; conditions: MT4 cells, average of duplicates
HIV-2 (LAV-2) = assay: Inhibition of HIV-2 cytopathogenicity in MT4 cells; type: cell-based, human immunodeficiency virus; conditions: MT4 cells, average of duplicates
[6] = test system: moloney murine sarcoma virus (MSV); assay: Inhibition of MSV cytopathogenicity in CEM cells (cell-protection assay); type: cell-based; conditions: CEM cells, average of duplicates
[7] = Lipophilicity, 1-octanol/water partition coefficient; conditions: P = [substrate]1-octanol/[substrate]H2O; phosphate buffer 0.10 M
[8] = Solubility in water (phosphate buffer, UV absorbance); conditions: phosphate buffer 0.10 M, pH 6.8, agitated 20 h

For “[1-(Guanine-9-yl-ethoxy)methyl]phosphono-6-yl-(Z)-4-(ethylidene)-2,3-dimethoxy-Δ^a,b-butenolide [Compound 29]”, the “IC50 HSV-1 (KOS)” value [1] was 0.42 µg/mL, the “IC50 HSV-2 (G)” value [2] was 0.28 µg/mL and the “IC50 TK+VZV (YS)” value [3] was 0.0070 µg/mL. For the same substance, the “IC50 TK−VZV (YS/R)” value [4] was 0.0080 µg/mL, the “IC50 HCMV (AD-169)” value [5] was 0.020 µg/mL and the “IC50 HIV-1 (IIIB)” value (HIV-1 (IIIB)) was 6.0 µg/mL. The “IC50 HIV-2 (LAV-2)” value (HIV-2 (LAV-2)) was 7.1 µg/mL, the “IC50 MSV” value [6] was 0.020 µg/mL and the “HeLa cell, concentration causing microscopically visible change or disruption in about 50% of the cell sheet” value (HeLa cells) was 8.8 µg/mL. The “Vero cell, concentration causing microscopically visible change or disruption in about 50% of the cell sheet” value (Vero cells) was 6.6 µg/mL, the “MT4 cell, concentration reducing the number of viable uninfected cells by 50%” value (MT4 cells) was 14 µg/mL and the “CEM cell, concentration reducing the number of viable uninfected cells by 50%” value (CEM cells) was 13 µg/mL. The “log P (1-octanol/water)” value [7] was 0.79 and the solubility in water [8] was 2050 µg/mL.
